In US9334256B2, “Agents and methods for treating ischemic and other diseases” (NoNO INC., priority 2011, dated 2016):

What was measured:
TRPM7 ion channel = molecular target: T1, TRPM7 ion channel (Mus musculus, UniProt Q923J1); test: Whole-cell patch clamp of TRPM7 currents in HEK293 cells; assay type: cell-based; conditions: value shown = concentration at which the compound significantly inhibits the ion channel
T1 construct: expressed in transfected cells; host or cells: TRPM7-tet-on HEK293 cells
Method: To further understand the structure function relationships between the TRPM7 inhibitors identified in the TRPM7-dependent HEK death assay, the activity of a subset of these inhibitors described herein were tested for their ability to inhibit TRPM7 currents in cell systems. Whole-cell patch clamp recordings were used essentially as described to test the TRPM7 inhibitors in HEK293 cells, H9c2 cardiomyocytes and cultured neurons. […] Those that provide >10% inhibition of TRPM7 channel activity in the HEK293 cell system were labeled with the concentration tested (generally 5 uM). Thus, the compounds in this table marked with such a value are able to block the activity gof the TRPM7 ion channel. FIGS. 2A-C provide an example of this for the TRPM7 inhibitor 399 (Structure 9). […] Numbers in brackets indicate the number of independent tests, and the bars represent the SEM.
Whole-cell currents were recorded using an Axopatch 1D or MultiClamp 700B amplifier and were digitized at 10 kHz and low-pass filtered at 2 kHz, at room temperature. pClamp10 software was used for data acquisition and analysis. Patch electrodes were pulled from Borosilicate glass and fire polished to a resistance of 2-4 MΩ. All drugs were administrated directly to cell bodies under recording through the fast exchange perfusion system.
The intracellular solution (ICS) contains (mM) 145 Cs-methanesulfonate, 8 NaCl, l MgCl2, 4.1 CaCl2, 10 EGTA, and 10 HEPES, 5 ATP, pH at 7.4, with 300-305 mOsm. The extracellular solution (ECS) contains (mM) 140 NaCl, 5 KCl, 2 CaCl2, 20 HEPES, and 10 glucose, pH at 7.4 and with 315-320 mOsm.
Voltage stimuli lasting 250 ms were delivered at 5-s intervals with voltage ramps ranging from −100 to +100 mV. The current values at −80 mV and +80 mV on I-V curve represent the measures of inward and outward current respectively.
Table X and FIGS. 7-51 show screening data for several additional compounds that are variants of M5, M6 or M21. The synthesis of compounds of Table X and FIGS. 7-51 is shown in Appendices A-C. The compounds shown in FIGS. 7-51 can be related to the appropriate row of Table X by the compound number shown in the figures and in the first column of Table X. The compounds in Table X other than M5, M6 and M21 themselves, are believed to be novel. The Table provides a number identifying the compound, its structurer, molecular weight and its cluster (i.e., whether the compound resembles M5, M6 or M21). The three columns relations to PI uptake describe the results of screening the compounds in the type of assay from Example 1. […] The last two columns show an effect on proliferation of Weri retinoblastoma or HeLa cervical cancer cells. Inhibition of proliferation is a measure of anti-neoplastic activity. […] If no data is shown, no test was performed.

TRPM7 = molecular target: T2, TRPM7 (Mus musculus, UniProt Q923J1); test: PI uptake cell death assay in TRPM7-expressing HEK-293 cells (type of assay from Example 1); assay type: cell-based, murine
T2 construct: expressed in transfected cells; host or cells: HEK-293 tSA (HEK-293T) cells, transient transfection with Lipofectamine 2000
Text: The TRPM7 channel provides a pathway for mono- and divalent cations into the cell, and is unique in that it contains a functional C-terminal α-kinase domain. […] The induction of chemical anoxia in host cells such as recombinant HEK293 cells can be used to activate TRPM7. This activation is detectable with the use measurements of cellular calcium accumulation. This is achievable with the use of a fluorescent calcium indicator. Alternatively, this activation can also be measured using radiolabelled Ca2+ (^45Ca^2+) as described previously by Sattler et al. (Sattler et al., 1998) and Aarts et al. (Aarts et al., 2003).
Hoechst 33342 was purchased as a 10 mg/mL solution in water (Molecular Probes Inc., Eugene, Oreg.). Propidium iodide (PI) was purchased as a powder and prepared by dissolving in PBS at 1 mg/mL. PI solutions were stored at 4° C. until use. Hoechst and PI were added directly to cell culture to 5 μg/mL and 10 μg/mL respectively. Cells were incubated at room temperature or at 37° C. for 10 minutes to allow for adequate uptake, and fluorescence observed using a NIKON Eclipse TE2000 inverted microscope and TE-FM Epi-Fluorescence attachment (Nikon Canada).
Untransfected cells or cells transfected with the TRPM7/pTracer or ΔPDZ/pTracer construct were plated onto 24-well plates, 24-hours post-transfection. Untransfected cells were plated at 0.75×10^6 cells/well and transfected cells at 1×10^6 cells/well. The plates were coated with poly-D-lysine to strengthen cell adhesion and to minimize cell loss during washes. Cells were loaded by incubation with 5 μM fluo-3 AM and 0.02% pluronic in HBSS at 37° C. for 30 minutes. Following loading, cells were washed with an aglycaemic HBSS containing, in mM: 20 N-methyl-D-glucamine (NMDG), 121 NaCl, 5 KCl, 10 HEPES acid, 10 HEPES-Na salt, 3 NaHCO3, 1 Na-pyruvate, and 1.8 CaCl2, pH adjusted to 7.4 with HCl. Calcium uptake, as assessed by fluo-3 fluorescence, was measured in response to 0, 5, 10, 15, 20, or 25 mM sodium cyanide (NaCN; Mallinckrodt Baker Inc., Phillipsburg, N.J.) dissolved in aglycaemic HBSS. A 250 mM NaCN stock was prepared in water and stored at room temperature for up to 2 weeks. Measurements of fluo-3 fluorescence were taken over a 2 hour period at 10 minutes intervals at room temperature (22-25° C.). Calcium uptake assays were performed 48 hours post-transfection.
Cell death, as assessed by PI uptake, was examined at the end of the 2 hour calcium uptake assay. Cells were stained with 10 μg/mL PI and PI fluorescence measured using the Fluoroskan microplate reader (λ excitation=590 nm, λ emission=630 nm) and accompanying Ascent software (Thermo Electron Corp.). To obtain a reading of maximal fluorescence (Fmax), 0.5% Triton X-100 was added to each well and allowed to incubate for 20 minutes. Cell death assays were performed 48 hours post-transfection.
Data was entered into Excel (Microsoft, Seattle, Wash.) or SigmaPlot (SPSS Inc., Chicago, Ill.) for analysis. Pooled data are presented as the mean of at least 3 separate experiments±sem. Calcium uptake is expressed as a fraction of baseline uptake: ΔFt=(Ft−Fo)/Fo where Ft is the fluorescence at time t, and Fo is the fluorescence at baseline. Cell death is expressed as a percentage of total cell death: cell death (%)=Ft/Fmax×100 where Ft is the fluorescence at time t and Fmax is the maximal fluorescence obtained by permeabilization with Triton X-100. Concentration-response curves were fit by nonlinear regression with a 4 parameter logistic curve represented by the following equation: y=min+{(max−min)/[1+(x/EC50)n]} where y is the response at concentration x, min is the minimal response, max is the maximal response, EC50 is the concentration required for half-maximal response, and n is the Hill slope. Statistical analysis of data was carried out with a two-tailed Student's t test, or a one-way analysis of variance (ANOVA) followed by post hoc pairwise multiple comparisons testing using the Holm-Sidak method, where appropriate. […]

[1] = Table X, the lower the number, the more potent in protecting against cell death
[2] = Table X, the lower the number, the more potent
[3] = Table Y, commercially available compounds

T2 sequence (Q923J1 whole entry): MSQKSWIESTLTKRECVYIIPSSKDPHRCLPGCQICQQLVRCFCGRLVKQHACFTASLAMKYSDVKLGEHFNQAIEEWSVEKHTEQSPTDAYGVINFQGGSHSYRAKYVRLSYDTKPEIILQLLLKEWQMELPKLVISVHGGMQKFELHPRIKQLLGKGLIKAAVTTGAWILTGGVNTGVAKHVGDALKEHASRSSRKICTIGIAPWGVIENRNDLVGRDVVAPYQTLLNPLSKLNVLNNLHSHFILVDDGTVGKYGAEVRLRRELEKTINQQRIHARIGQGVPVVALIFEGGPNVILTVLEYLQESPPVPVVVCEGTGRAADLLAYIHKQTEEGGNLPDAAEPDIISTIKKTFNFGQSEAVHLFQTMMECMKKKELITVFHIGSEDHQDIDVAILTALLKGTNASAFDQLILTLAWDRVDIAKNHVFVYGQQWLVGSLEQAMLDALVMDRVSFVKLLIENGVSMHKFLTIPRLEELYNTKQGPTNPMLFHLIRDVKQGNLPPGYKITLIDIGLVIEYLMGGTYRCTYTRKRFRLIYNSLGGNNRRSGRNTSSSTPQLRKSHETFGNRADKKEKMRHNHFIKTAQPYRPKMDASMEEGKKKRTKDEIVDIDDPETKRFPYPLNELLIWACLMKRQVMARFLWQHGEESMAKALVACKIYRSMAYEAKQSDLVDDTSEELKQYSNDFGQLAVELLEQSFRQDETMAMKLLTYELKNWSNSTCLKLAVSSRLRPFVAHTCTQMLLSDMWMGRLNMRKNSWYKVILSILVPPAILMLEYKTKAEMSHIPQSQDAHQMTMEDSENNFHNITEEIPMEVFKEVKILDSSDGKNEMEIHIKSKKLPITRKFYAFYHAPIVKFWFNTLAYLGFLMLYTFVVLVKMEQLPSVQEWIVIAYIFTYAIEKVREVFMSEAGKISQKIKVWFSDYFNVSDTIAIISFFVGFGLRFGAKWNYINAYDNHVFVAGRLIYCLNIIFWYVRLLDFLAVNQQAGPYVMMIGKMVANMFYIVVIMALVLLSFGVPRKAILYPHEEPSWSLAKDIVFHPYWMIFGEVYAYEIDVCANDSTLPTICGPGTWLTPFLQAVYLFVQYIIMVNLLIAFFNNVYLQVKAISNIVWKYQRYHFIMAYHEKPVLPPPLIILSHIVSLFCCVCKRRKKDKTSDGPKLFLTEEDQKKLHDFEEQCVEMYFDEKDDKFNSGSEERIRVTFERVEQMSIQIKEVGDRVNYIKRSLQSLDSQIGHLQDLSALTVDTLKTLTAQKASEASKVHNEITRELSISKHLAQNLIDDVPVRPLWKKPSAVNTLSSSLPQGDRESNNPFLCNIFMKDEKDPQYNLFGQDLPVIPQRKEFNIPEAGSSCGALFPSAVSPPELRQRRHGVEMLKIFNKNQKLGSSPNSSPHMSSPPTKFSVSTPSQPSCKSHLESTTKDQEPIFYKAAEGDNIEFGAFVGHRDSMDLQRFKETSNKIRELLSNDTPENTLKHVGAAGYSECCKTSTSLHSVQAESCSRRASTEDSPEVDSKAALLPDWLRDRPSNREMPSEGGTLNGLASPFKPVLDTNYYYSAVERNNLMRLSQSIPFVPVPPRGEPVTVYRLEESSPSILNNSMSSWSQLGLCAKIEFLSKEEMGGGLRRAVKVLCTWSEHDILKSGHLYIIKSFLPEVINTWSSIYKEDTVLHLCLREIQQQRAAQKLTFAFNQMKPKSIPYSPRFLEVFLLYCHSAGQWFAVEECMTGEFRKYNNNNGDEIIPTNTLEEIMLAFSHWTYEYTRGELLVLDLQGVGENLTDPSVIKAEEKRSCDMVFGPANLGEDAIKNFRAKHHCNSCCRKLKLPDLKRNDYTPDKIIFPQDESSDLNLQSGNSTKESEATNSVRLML
T1 sequence (Q923J1 whole entry): as above

O=C(NC1CCCc2ccccc21)c1sc2ccccc2c1Cl (centres unmarked) [Compound 97]
TRPM7 current (TRPM7 ion channel): 5 μM (Those that provide >10% inhibition of TRPM7 channel activity in the HEK293 cell system were labeled with the concentration tested (generally 5 uM))
Normalized ratio of PI uptake (5 μM) (TRPM7; [1]): 0
Normalized ratio of PI uptake (10 μM) (TRPM7; [2]): 0.084
IC50 (TRPM7; Table X): 1.24 µM

Cc1cccc2sc(C3=NCCc4c(F)cccc43)c(Cl)c12 [Compound 117]
TRPM7 current (TRPM7 ion channel): 5 μM (Those that provide >10% inhibition of TRPM7 channel activity in the HEK293 cell system were labeled with the concentration tested (generally 5 uM))
Normalized ratio of PI uptake (5 μM) (TRPM7; [1]): 0.02
Normalized ratio of PI uptake (10 μM) (TRPM7; [2]): 0.07
IC50 (TRPM7; Table X): 1.67 µM

COc1cc2c(cc1OC)C(c1sc3cc(OC)c(OC)cc3c1Cl)=NCC2 [Compound 120]
TRPM7 current (TRPM7 ion channel): 5 μM (Those that provide >10% inhibition of TRPM7 channel activity in the HEK293 cell system were labeled with the concentration tested (generally 5 uM))
Normalized ratio of PI uptake (5 μM) (TRPM7; [1]): 0.079
Normalized ratio of PI uptake (10 μM) (TRPM7; [2]): 0.066
IC50 (TRPM7; Table X): 2.55 µM

COc1cc(OC)c2c(C)c(Cc3ccc(Cl)c(Cl)c3)c(=O)[nH]c2c1 [Compound 130]
Normalized ratio of PI uptake (5 μM) (TRPM7; [1]): 0.1
Normalized ratio of PI uptake (10 μM) (TRPM7; [2]): 0.06
IC50 (TRPM7; Table X): 0.93 µM

CCCc1c(Cc2ccc(Cl)c(Cl)c2)c(=O)[nH]c2cc(OC)cc(OC)c12 [Compound 132]
Normalized ratio of PI uptake (5 μM) (TRPM7; [1]): 0.73
Normalized ratio of PI uptake (10 μM) (TRPM7; [2]): 0.1
IC50 (TRPM7; Table X): 4.46 µM

Cc1c(Cc2c(F)cccc2Cl)c(=O)[nH]c2cc(O)cc(O)c12 [Compound 133]
Normalized ratio of PI uptake (5 μM) (TRPM7; [1]): 0.367
Normalized ratio of PI uptake (10 μM) (TRPM7; [2]): 0.123
IC50 (TRPM7; Table X): 3.31 µM

CCCc1c(Cc2cccc(Cl)c2)c(=O)[nH]c2cc(O)cc(O)c12 [Compound 134]
Normalized ratio of PI uptake (5 μM) (TRPM7; [1]): 0.564
Normalized ratio of PI uptake (10 μM) (TRPM7; [2]): 0.305

CCCc1c(Cc2ccc(Cl)c(Cl)c2)c(=O)[nH]c2cc(O)cc(O)c12 [Compound 136]
Normalized ratio of PI uptake (5 μM) (TRPM7; [1]): 0.534
Normalized ratio of PI uptake (10 μM) (TRPM7; [2]): 0.238
IC50 (TRPM7; Table X): 18.4 µM

Cc1c(Cc2c(Cl)cccc2Cl)c(=O)[nH]c2cc(O)cc(O)c12 [Compound 137]
Normalized ratio of PI uptake (5 μM) (TRPM7; [1]): 0.575
Normalized ratio of PI uptake (10 μM) (TRPM7; [2]): 0.296
IC50 (TRPM7; Table X): 8.5 µM

COc1cc(OC)c2c(C)c(Cc3ccc(F)cc3)c(=O)[nH]c2c1 [Compound 138]
Normalized ratio of PI uptake (5 μM) (TRPM7; [1]): 0.034
Normalized ratio of PI uptake (10 μM) (TRPM7; [2]): 0.026
IC50 (TRPM7; Table X): 0.47 µM

Cc1c(Cc2cccc(Cl)c2)c(=O)[nH]c2cc(O)cc(O)c12 [Compound 140]
Normalized ratio of PI uptake (5 μM) (TRPM7; [1]): 0.487
Normalized ratio of PI uptake (10 μM) (TRPM7; [2]): 0.062
IC50 (TRPM7; Table X): 11.1 µM

O=C(c1sc2ccccc2c1Cl)N(Cc1ccccc1)c1ccccc1 [MCC1879 #5, reference compound]
Normalized ratio of PI uptake (5 μM) (TRPM7; [3]): 0.108
Normalized ratio of PI uptake (10 μM) (TRPM7; [3]): 0.062
IC50 (TRPM7; [3]): 1.77 µM

Cc1c(Cc2c(Cl)cccc2Cl)c(=O)oc2cc(O)c(Cl)cc12 [RJF00028SC #11, reference compound]
Normalized ratio of PI uptake (5 μM) (TRPM7; [3]): 0.233
Normalized ratio of PI uptake (10 μM) (TRPM7; [3]): 0.136
IC50 (TRPM7; [3]): 3.16 µM

CCCc1c(Cc2c(F)cccc2Cl)c(=O)oc2cc(O)ccc12 [RJF01538SC #14, reference compound]
Normalized ratio of PI uptake (5 μM) (TRPM7; [3]): 0.16
Normalized ratio of PI uptake (10 μM) (TRPM7; [3]): 0.057
IC50 (TRPM7; [3]): 2.78 µM

Cc1c(Cc2ccc(F)cc2)c(=O)oc2cc(O)ccc12 [RJF01910SC #10, reference compound]
Normalized ratio of PI uptake (5 μM) (TRPM7; [3]): 0.465
Normalized ratio of PI uptake (10 μM) (TRPM7; [3]): 0.261
IC50 (TRPM7; [3]): 4.15 µM

Cc1c(Cc2ccccc2)c(=O)oc2c(CN(C)C)c(O)ccc12 [STOCK1N- 36829 #3, reference compound]
Normalized ratio of PI uptake (5 μM) (TRPM7; [3]): 0.262
Normalized ratio of PI uptake (10 μM) (TRPM7; [3]): 0.102
IC50 (TRPM7; [3]): 4.72 µM

Cc1c(Cc2ccccc2)c(=O)oc2cc(O)cc(O)c12 [STOCK1N- 70089 #1, reference compound]
Normalized ratio of PI uptake (5 μM) (TRPM7; [3]): 0.181
Normalized ratio of PI uptake (10 μM) (TRPM7; [3]): 0.005
IC50 (TRPM7; [3]): 3.16 µM

CCN(CC)Cc1c(O)ccc2c(C)c(Cc3ccccc3)c(=O)oc12 [STOCK4S- 10213 #1, reference compound]
Normalized ratio of PI uptake (5 μM) (TRPM7; [3]): 0.398
Normalized ratio of PI uptake (10 μM) (TRPM7; [3]): 0.242
IC50 (TRPM7; [3]): 4.3 µM

Cc1c(Cc2ccccc2)c(=O)oc2cc(O)c(Cl)cc12 [STOCK6S- 31467 #2, reference compound]
Normalized ratio of PI uptake (5 μM) (TRPM7; [3]): 0.472
Normalized ratio of PI uptake (10 μM) (TRPM7; [3]): 0.1
IC50 (TRPM7; [3]): 12.6 µM

O=C(NC1CCOc2ccccc21)c1cc2ccccc2[nH]1 (centres unmarked) [T6749380 #12, reference compound]
Normalized ratio of PI uptake (5 μM) (TRPM7; [3]): 0.043
Normalized ratio of PI uptake (10 μM) (TRPM7; [3]): 0.029
IC50 (TRPM7; [3]): 2.8 µM

CC1c2ccsc2CCN1C(=O)c1c(Cl)c2ccccc2n1C (centres unmarked) [T6857127 #7, reference compound]
Normalized ratio of PI uptake (5 μM) (TRPM7; [3]): 0
Normalized ratio of PI uptake (10 μM) (TRPM7; [3]): 0
IC50 (TRPM7; [3]): 0.8 µM

CC1c2ccsc2CCN1C(=O)c1[nH]c2ccccc2c1Cl (centres unmarked) [T6899791 #8, reference compound]
Normalized ratio of PI uptake (5 μM) (TRPM7; [3]): 0
Normalized ratio of PI uptake (10 μM) (TRPM7; [3]): 0
IC50 (TRPM7; [3]): 0.7 µM
